Experiments:
GCN2 kinase = GCN2 kinase (Homo sapiens, UniProt Q9P2K8); experiment: GCN2 enzyme inhibition assay (Transcreener ADP2 fluorescence polarization); type: biochemical; details: 280 μM ATP
Method in brief: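 FP detection of ADP (antibody plus Alexa633 tracer) after a 1 h, 25 °C kinase reaction. Enzyme 4 nM, ATP 280 μM, (RS)7 peptide 200 μM, Tris pH 7.5 buffer with MgCl2 and DTT. Percent inhibition fitted by non-linear tight-binding algorithm for IC50 and Ki(app).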

[1] = molecular target: intracellular GCN2 (phosphorylation of the GCN2 substrate eIF2α) (Homo sapiens, UniProt Q9P2K8); experiment: GCN2 cellular inhibition assay (AlphaScreen SureFire P-eIF2α Ser51, borrelidin-treated U2OS cells); type: cell-based; details: biomarker assay, phosphorylated eIF2α Ser51 in borrelidin-treated U2OS cells
intracellular GCN2 (phosphorylation of the GCN2 substrate eIF2α), sequence (Q9P2K8 whole entry): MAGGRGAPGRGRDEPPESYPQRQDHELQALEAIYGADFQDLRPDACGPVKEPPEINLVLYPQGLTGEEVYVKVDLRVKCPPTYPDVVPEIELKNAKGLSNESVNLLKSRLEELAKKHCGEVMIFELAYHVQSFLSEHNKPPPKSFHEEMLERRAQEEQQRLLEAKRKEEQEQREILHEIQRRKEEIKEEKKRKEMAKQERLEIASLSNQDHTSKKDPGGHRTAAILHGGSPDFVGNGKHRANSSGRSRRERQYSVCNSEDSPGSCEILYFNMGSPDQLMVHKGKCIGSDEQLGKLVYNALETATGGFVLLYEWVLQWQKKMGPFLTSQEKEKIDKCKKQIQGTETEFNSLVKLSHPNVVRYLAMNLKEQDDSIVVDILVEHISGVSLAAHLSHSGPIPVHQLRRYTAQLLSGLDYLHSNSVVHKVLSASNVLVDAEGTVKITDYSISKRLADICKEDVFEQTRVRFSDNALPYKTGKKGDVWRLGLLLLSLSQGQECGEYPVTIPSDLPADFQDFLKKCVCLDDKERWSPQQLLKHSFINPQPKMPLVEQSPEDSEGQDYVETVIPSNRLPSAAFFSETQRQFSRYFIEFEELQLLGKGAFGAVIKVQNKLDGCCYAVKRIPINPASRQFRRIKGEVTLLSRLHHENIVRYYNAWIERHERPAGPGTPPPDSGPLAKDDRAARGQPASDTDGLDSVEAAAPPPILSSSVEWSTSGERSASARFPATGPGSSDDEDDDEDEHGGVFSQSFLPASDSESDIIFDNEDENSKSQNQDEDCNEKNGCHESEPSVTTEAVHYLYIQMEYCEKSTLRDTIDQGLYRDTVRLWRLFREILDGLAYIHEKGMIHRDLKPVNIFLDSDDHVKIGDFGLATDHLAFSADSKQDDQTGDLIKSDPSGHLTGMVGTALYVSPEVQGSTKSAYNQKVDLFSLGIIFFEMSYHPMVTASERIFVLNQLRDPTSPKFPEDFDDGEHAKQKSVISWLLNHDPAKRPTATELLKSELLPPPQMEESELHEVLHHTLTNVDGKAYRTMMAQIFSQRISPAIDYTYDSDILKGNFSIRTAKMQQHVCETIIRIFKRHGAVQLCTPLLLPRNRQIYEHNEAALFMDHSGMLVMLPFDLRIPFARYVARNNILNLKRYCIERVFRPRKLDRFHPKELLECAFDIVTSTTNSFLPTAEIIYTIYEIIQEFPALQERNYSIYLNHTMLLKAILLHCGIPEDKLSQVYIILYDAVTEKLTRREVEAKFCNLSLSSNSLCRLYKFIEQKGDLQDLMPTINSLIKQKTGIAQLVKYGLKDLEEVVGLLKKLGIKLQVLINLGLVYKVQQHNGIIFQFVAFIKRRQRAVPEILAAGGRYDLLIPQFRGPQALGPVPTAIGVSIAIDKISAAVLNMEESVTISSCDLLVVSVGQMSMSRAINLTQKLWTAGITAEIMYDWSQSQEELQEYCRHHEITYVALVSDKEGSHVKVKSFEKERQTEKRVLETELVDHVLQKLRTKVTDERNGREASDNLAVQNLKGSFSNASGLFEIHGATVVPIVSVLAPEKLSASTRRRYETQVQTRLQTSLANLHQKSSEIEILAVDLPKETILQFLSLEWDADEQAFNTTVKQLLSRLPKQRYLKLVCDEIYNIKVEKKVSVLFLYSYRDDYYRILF
Method in brief: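 Phospho-eIF2α (Ser51) in lysates was quantified by AlphaScreen SureFire after a 1 h, 37 °C treatment of U2OS cells with 10 μM borrelidin and compound at 4-fold dilutions starting from 40 μM final. Inhibition expressed in percent against wells stimulated by borrelidin alone.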

[2] = compounds of Formula II, 4 nM GCN2 kinase
[3] = Enzyme activity for compounds of Formula IV, Ki(app), 25° C.

GCN2 kinase, sequence (Q9P2K8 whole entry): as above

Ki (GCN2 kinase; [2]) | IC50 ([1]; compounds of Formula II) | Ki (GCN2 kinase; [3]) | IC50 ([1]; compounds of Formula IV) | Structure (SMILES)
10 to 1000 nM | > 5000 nM |  |  | CC(NS(C)(=O)=O)C1CN(c2cc(-c3cnc4ccc(C(F)F)nn34)ncn2)CCN1C (stereo not drawn) [II-473, N-(1-(4-(6-(6-(Difluoromethyl)imidazo[1,2-b]pyridazin-3-yl)pyrimidin-4-yl)-1-methylpiperazin-2-yl)ethyl)methanesulfonamide]
10 to 1000 nM | 500 to 5000 nM |  |  | FC(F)c1ccc2ncc(-c3cc(N4CC5CC(C4)O5)ncn3)n2n1 [II-451, 3-(6-(6-(Difluoromethyl)imidazo[1,2-b]pyridazin-3-yl)pyrimidin-4-yl)-6-oxa-3-azabicyclo[3.1.1]heptane]
< 10 nM | < 500 nM |  |  | CC1=C(F)C(CNS(C)(=O)=O)CN(c2cc(-c3cnc4ccc(C(F)F)nn34)ncn2)C1 (stereo not drawn) [II-538, N-((1-(6-(6-(Difluoromethyl)imidazo[1,2-b]pyridazin-3-yl)pyrimidin-4-yl)-4-fluoro-5-methyl-1,2,3,6-tetrahydropyridin-3-yl)methyl)methanesulfonamide]
< 10 nM | < 500 nM |  |  | CCC1C(CNS(C)(=O)=O)CCCN1c1cc(-c2cnc3ccc(C(F)F)nn23)ncn1 (single isomer, unassigned) [II-416]
10 to 1000 nM | 500 to 5000 nM |  |  | CC1CC(P(C)(C)=O)CN(c2cc(-c3cnc4ccc(C(F)F)nn34)ncn2)C1 (stereo not drawn) [II-711, 6-(Difluoromethyl)-3-[6-(3-dimethylphosphoryl-5-methyl-1-piperidyl)pyrimidin-4-yl]imidazo[1,2-b]pyridazine]
< 10 nM | < 500 nM |  |  | C[C@H]1CN(c2cc(-c3cnc4ccc(C(F)F)nn34)ncn2)C[C@@H](CNS(N)(=O)=O)C1(F)F [II-316, 1-(((3S,5S)-1-(6-(6-(Difluoromethyl)imidazo[1,2-b]pyridazin-3-yl)pyrimidin-4-yl)-4,4-difluoro-5-methylpiperidin-3-yl)methyl)sulfuric diamide]
< 10 nM | < 500 nM |  |  | CC1CC(F)(F)C(CNS(C)(=O)=O)CN1c1cc(-c2cnc3ccc(C(F)F)nn23)ncn1 (stereo not drawn) [II-433, N-((1-(6-(6-(Difluoromethyl)imidazo[1,2-b]pyridazin-3-yl)pyrimidin-4-yl)-4,4-difluoro-6-methylpiperidin-3-yl)methyl)methanesulfonamide]
10 to 1000 nM | 500 to 5000 nM |  |  | CC1(C)CN(c2cc(-c3cnc4ccc(C(F)F)nn34)ncn2)C[C@H](CNS(C)(=O)=O)O1 [II-257, (R)—N-((4-(6-(6-(Difluoromethyl)imidazo[1,2-b]pyridazin-3-yl)pyrimidin-4-yl)-6,6-dimethylmorpholin-2-yl)methyl)methanesulfonamide]
10 to 1000 nM | 500 to 5000 nM |  |  | CC1CN(c2cc(-c3cnc4ccc(C(F)(F)F)nn34)ncn2)CC(CNS(C)(=O)=O)C1(F)F (stereo not drawn) [II-293, N-((4,4-Difluoro-5-methyl-1-(6-(6-(trifluoromethyl)imidazo[1,2-b]pyridazin-3-yl)pyrimidin-4-yl)piperidin-3-yl)methyl)methanesulfonamide]

Further lines, the compound ahead of its results:

Structure (SMILES) | Ki (GCN2 kinase; [2]) | IC50 ([1]; compounds of Formula II) | Ki (GCN2 kinase; [3]) | IC50 ([1]; compounds of Formula IV)
CC1CN(c2ccnc(-c3cnc4cnc(C(F)(F)F)cn34)n2)CC(c2cn[nH]c2C(F)(F)F)N1 (single isomer, unassigned) [IV-474, 3-(4-(3-Methyl-5-(5-(trifluoromethyl)-1H-pyrazol-4-yl)piperazin-1-yl)pyrimidin-2-yl)-6-(trifluoromethyl)imidazo[1,2-a]pyrazine] |  |  | < 10 nM | < 500 nM
FC(F)c1ccc2ncc(-c3cc(N4CCC(c5c[nH]cn5)C4)ncn3)n2n1 (stereo not drawn) [II-203, 3-(6-(3-(1H-imidazol-4-yl)pyrrolidin-1-yl)pyrimidin-4-yl)-6-(difluoromethyl)imidazo[1,2-b]pyridazine] | 10 to 1000 nM | > 5000 nM |  | 
OCC1CCCN(c2ccnc(-c3cnc4cnc(C(F)F)cn34)n2)C1 (stereo not drawn) [IV-121, (1-(2-(6-(Difluoromethyl)imidazo[1,2-a]pyrazin-3-yl)pyrimidin-4-yl)piperidin-3-yl)methanol] |  |  | 100 to 1000 nM | > 5000 nM
Cc1cn2c(-c3nccc(N4CCNC(c5cn[nH]c5)C4C)n3)cnc2cn1 (stereo not drawn) [IV-398, 6-Methyl-3-(4-(2-methyl-3-(1H-pyrazol-4-yl)piperazin-1-yl)pyrimidin-2-yl)imidazo[1,2-a]pyrazine] |  |  | 10 to 100 nM | > 5000 nM
C[C@H]1[C@@H](c2cn[nH]c2)NCCN1c1ccnc(-c2cnc3cnc(Br)cn23)n1 (racemic) [IV-343, Cis-6-Bromo-3-(4-(2-methyl-3-(1H-pyrazol-4-yl)piperazin-1-yl)pyrimidin-2-yl)imidazo[1,2-a]pyrazine] |  |  | < 10 nM | < 500 nM
FC(F)c1ccc2ncc(-c3ccnc(N4CCC5(CCNCC5)CC4)c3)n2n1 [II-161, 3-(2-(3,9-Diazaspiro[5.5]undecan-3-yl)pyridin-4-yl)-6-(difluoromethyl)imidazo[1,2-b]pyridazine] | 10 to 1000 nM | > 5000 nM |  | 
CS(=O)(=O)NC[C@H]1CCCN(c2ccnc(-c3cnc4cnc(C(F)F)cn34)n2)C1 [IV-29, (S)—N-((1-(2-(6-(Difluoromethyl)imidazo[1,2-a]pyrazin-3-yl)pyrimidin-4-yl)piperidin-3-yl)methyl)methanesulfonamide] |  |  | 100 to 1000 nM | > 5000 nM
FC(F)(F)c1cn2c(-c3nccc(-c4cnn(C5CCOC5)c4)n3)cnc2cn1 (stereo not drawn) [IV-449, 3-(4-(1-(Tetrahydrofuran-3-yl)-1H-pyrazol-4-yl)pyrimidin-2-yl)-6-(trifluoromethyl)imidazo[1,2-a]pyrazine] |  |  | 100 to 1000 nM | > 5000 nM
CC1CN(c2ccnc(-c3cnc4cnc(C(F)(F)F)cn34)n2)C(C)C(c2cn[nH]c2)O1 (single isomer, unassigned) [IV-451, 3,6-Dimethyl-2-(1H-pyrazol-4-yl)-4-(2-(6-(trifluoromethyl)imidazo[1,2-a]pyrazin-3-yl)pyrimidin-4-yl)morpholine] |  |  | < 10 nM | < 500 nM
CS(=O)(=O)NCC1CCCN(c2cc(-c3cnc4ccc(C(F)F)nn34)cc(N3CCOCC3)n2)C1 (stereo not drawn) [II-66, N-((1-(4-(6-(Difluoromethyl)imidazo[1,2-b]pyridazin-3-yl)-6-morpholinopyridin-2-yl)piperidin-3-yl)methyl)methanesulfonamide] | < 10 nM | 500 to 5000 nM |  | 
C[C@@H]1CC[C@H](C(N)=O)CN1c1ccnc(-c2cnc3cnc(C(F)F)cn23)n1 (racemic) [IV-106, Cis-1-(2-(6-(Difluoromethyl)imidazo[1,2-a]pyrazin-3-yl)pyrimidin-4-yl)-6-methylpiperidine-3 carboxamide] |  |  | 10 to 100 nM | 500 to 5000 nM
CN1CCN(c2cc(-c3cnc4ccc(C(F)F)nn34)ncn2)CC1C(N)=O (stereo not drawn) [II-453, 4-(6-(6-(Difluoromethyl)imidazo[1,2-b]pyridazin-3-yl)pyrimidin-4-yl)-1-methylpiperazine-2-carboxamide] | 10 to 1000 nM | > 5000 nM |  | 
C[S+]([O-])CC1CCCN(c2cc(-c3cnc4ccc(C(F)F)nn34)ccn2)C1 (stereo not drawn) [II-151, 6-(Difluoromethyl)-3-(2-(3-((methylsulfinyl)methyl)piperidin-1-yl)pyridin-4-yl)imidazo[1,2-b]pyridazine] | 10 to 1000 nM | 500 to 5000 nM |  | 
CC1CN(c2ccnc(-c3cnc4cnc(Cl)cn34)n2)CC(c2cn[nH]c2)O1 (stereo not drawn) [IV-193, 4-(2-(6-Chloroimidazo[1,2-a]pyrazin-3-yl)pyrimidin-4-yl)-2-methyl-6-(1H-pyrazol-4-yl)morpholine] |  |  | < 10 nM | < 500 nM
OC[C@H]1C[C@@H](C(F)(F)F)CN(c2cc(-c3cnc4ccc(C(F)F)nn34)ncn2)C1 [II-315, ((3S,5R)-1-(6-(6-(Difluoromethyl)imidazo[1,2-b]pyridazin-3-yl)pyrimidin-4-yl)-5-(trifluoromethyl)piperidin-3-yl)methanol] | 10 to 1000 nM | > 5000 nM |  | 
CS(=O)(=O)N1CC2OCCN(c3cc(-c4cnc5ccc(C(F)F)nn45)ncn3)C2C1 (stereo not drawn) [II-319, 4-(6-(6-(Difluoromethyl)imidazo[1,2-b]pyridazin-3-yl)pyrimidin-4-yl)-6-(methylsulfonyl)octahydropyrrolo[3,4-b][1,4]oxazine] | 10 to 1000 nM | > 5000 nM |  | 
Cc1nc(C2CCCN(c3ccnc(-c4cnc5cnc(Br)cn45)n3)C2)c[nH]1 (stereo not drawn) [IV-355, 6-Bromo-3-(4-(3-(2-methyl-1H-imidazol-4-yl)piperidin-1-yl)pyrimidin-2-yl)imidazo[1,2-a]pyrazine] |  |  | < 10 nM | 500 to 5000 nM
CC1C[S+]([O-])CCN1c1cc(-c2cnc3ccc(C(F)F)nn23)ncn1 (single isomer, unassigned) [II-355, 4-(6-(6-(Difluoromethyl)imidazo[1,2-b]pyridazin-3-yl)pyrimidin-4-yl)-3-methylthiomorpholine 1-oxide] | 10 to 1000 nM | > 5000 nM |  | 
CS(C)(=O)=N[C@@H]1C[C@@H](c2cn[nH]c2)CN(c2ccnc(-c3cnc4cnc(C(F)(F)F)cn34)n2)C1 (racemic) [IV-394] |  |  | 100 to 1000 nM | > 5000 nM
CS(=O)(=O)N1CCN2CCN(c3cc(-c4cnc5ccc(C(F)F)nn45)ccn3)CC2C1 (stereo not drawn) [II-37, 2-(4-(6-(Difluoromethyl)imidazo[1,2-b]pyridazin-3-yl)pyridin-2-yl)-8-(methylsulfonyl)octahydro-1H-pyrazino[1,2-a]pyrazine] | 10 to 1000 nM | 500 to 5000 nM |  | 
FC(F)(F)c1cn2c(-c3nccc(N4CCCC(n5ccnn5)C4)n3)cnc2cn1 (stereo not drawn) [IV-493, 3-(4-(3-(1H-1,2,3-Triazol-1-yl)piperidin-1-yl)pyrimidin-2-yl)-6-(trifluoromethyl)imidazo[1,2-a]pyrazine] |  |  | 10 to 100 nM | > 5000 nM
